# Data as given in the METLIN SMRT retention time set (Domingo-Almenara et al. 2019).
# Assay: gradient 5% acetonitrile 3 min, to 50% in 2 min, to 85% in 15 min, held 3 min, 100 µL/min
# Conditions: column: Zorbax Extend-C18 2.1 x 50 mm; eluents: water / acetonitrile, 0.1% formic acid
# In short: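 Each retention time is based on an adduct peak selected computationally and verified by manual inspection. Measurements used HPLC–quadrupole time-of-flight mass spectrometry in positive and negative ionization mode on mixtures of ~100 pure standards. Chromatography ran on a Zorbax Extend-C18 column (2.1 × 50 mm, 1.8 μm) at 100 μL/min with water and acetonitrile, each containing 0.1% formic acid, and dead and dwell volumes of 40 μL and 900 μL.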
row,RP-LC retention time [s],SMILES
1,852,COc1ccc(-c2nc(NC(=O)CSc3ccccc3)sc2CCC(=O)O)cc1
2,854,CCOc1ccc(NC(=O)N2CCCC2c2cc(C)on2)cc1 (centres undefined)
3,566,O=C(NCCc1cnc[nH]1)c1cc(-c2cccnc2)nc2ccccc12
4,732,COc1ccc(C(=O)N2CCN3CCS(=O)(=O)N(C4CC4)C(=O)C3C2)c(OC)n1 (centres undefined)
5,765,CCCn1nc(CNC(=O)c2cnccn2)c2ccccc21
6,691,CCC(C)NC(=O)c1ccc2c(c1)CC(=O)N2CC (centres undefined)
7,911,CCCN1C(=O)c2ccccc2Sc2cc(-c3noc(CNC(=O)c4ccco4)n3)ccc21
8,614,Cc1nn(C(C)C(=O)NCCCN2CCCC2)c(=O)c2nn(-c3ccccc3)c(C)c12 (centres undefined)
9,711,O=C1OCC/C1=C\c1ccc(O)cc1
10,874,CCOC(=O)c1ccc(-n2ccc3nc(C)c(C(=O)OC)cc3c2=O)cc1
11,1240,COc1ccc(C2Cn3nnc(-c4nc(-c5ccc(OC(F)(F)F)cc5)no4)c3CO2)cc1 (centres undefined)
12,764,COc1ccc(CCNC(=O)N2CCC(c3nnc(C(F)(F)F)o3)CC2)cc1
13,728,COc1ccc(CNC(=O)CCc2nnc3c4cc(-c5ccccc5)nn4ccn23)cc1
14,592,Nc1nc(N2CCN(c3ccccn3)CC2)ncc1C(=O)NCc1ccccc1
15,842,CCCN(C)c1nccnc1OC1CCN(C(=O)C(CC)CC)C1 (centres undefined)
16,884,Cc1cc(C)cc(-n2ccn(Cc3nc(-c4ccc(F)cc4)no3)c(=O)c2=O)c1
17,726,COc1cc2c(cc1OC)C(C(=O)N1CCOCC1)C(c1ccc(SC)cc1)N(C)C2=O (centres undefined)
18,916,O=C(NCc1ccccc1C(F)(F)F)C1=C2CCCN2c2ccccc2S1(=O)=O
19,594,COCCN1C(=O)c2cccn2CC1CNC(=O)c1ccc(Cc2c(C)n[nH]c2C)o1 (centres undefined)
20,643,Cc1cc(C)c(S(=O)(=O)N2CCc3nc[nH]c3C2)cc1C
21,761,Cc1ccc(-n2nc3c(N4CCCC(C(=O)NCc5ccc(F)cc5)C4)nnc(C)c3c2C)cc1 (centres undefined)
22,1200,COc1ccc(NC(=O)c2c(O)c3cccnc3n(-c3ccccc3)c2=O)cc1
23,888,CCOC(=O)Cn1c(=O)c2c(nc3n2CC(C)CN3c2ccc(OC)cc2)n(C)c1=O (centres undefined)

row,RP-LC retention time [s],SMILES
1,971,COCC(=O)N1CCc2c([nH]c3ccccc23)C1c1ccc(C)cc1 (centres undefined)
2,696,Cc1cc(C)c(S(=O)(=O)NCCn2c(C)cnc2C2CCC2)cc1C
3,1180,CCOc1cccc(-c2noc(CN3C(=O)COc4cc(Cl)ccc43)n2)c1
4,545,CN(C)c1ccc(CNC(=O)C2CCN(c3cncnc3N3CCOCC3)CC2)cc1
5,1290,Cc1cccc(N2CCN(S(=O)(=O)c3cc(-c4cc(C(F)(F)F)[nH]n4)sc3C)CC2)c1C
6,1250,CCN(CC)c1nc2cc(C(=O)OC)ccc2c(=O)n1CCc1ccccc1
7,713,O=C(CC1CCCC1)NCCc1noc(C2CC2)n1
8,1100,Cc1ccc(C)c(S(=O)(=O)N2CCCN(C)c3ccccc32)c1
9,569,Cc1cc(N)n(Cc2ccccc2)n1
10,650,CN(CC1CCOC1)C(=O)NCCc1ccccc1 (centres undefined)
11,726,COC(=O)C1=C(C)NC(=O)NC1c1ccc(Cl)c(Cl)c1 (centres undefined)
12,854,O=C(Cn1cnc2c(-c3ccc(F)cc3)csc2c1=O)NC1CCCC1
13,882,COc1ccc(-c2nn3c(CSc4ccccc4)nnc3s2)cc1OC
14,573,O=C(CC1CCOC2(CCN(Cc3ccco3)CC2)C1)NC1CC1 (centres undefined)
15,672,CN(C)CCNC(=O)c1cn(C)nc1S(=O)(=O)N1CCN(c2ccc(Cl)cc2)CC1
16,699,O=C(NC1CCN(c2cc(-c3ccc(F)cc3)[nH]n2)C1)c1cccs1 (centres undefined)
17,708,Cc1cccc(CNC(=O)c2cn3cc(C)ccc3n2)c1
18,732,COc1ccccc1N1CCN(c2nc3ccc(C)cc3cc2-c2noc(C)n2)CC1
19,685,Cc1cc(NC(=O)C2CCCN(c3ccc(-c4ccc(Cl)cc4)nn3)C2)on1 (centres undefined)
20,1000,COc1cccc(Cn2c(C(=O)N3CCC(C(=O)NC4CCCCC4)CC3)cc3ccsc32)c1
21,800,CCn1nccc1C(=O)N1CC(Oc2ccc(-c3nc(C)no3)cc2)C1
22,832,N#Cc1ccc(S(=O)(=O)N2CCC(C(=O)NCC(=O)N3CCCc4ccccc43)CC2)cc1
23,1150,Cc1ccc(-c2noc(CCn3nc(-c4ccc(C)c(C)c4)ccc3=O)n2)cc1

row,RP-LC retention time [s],SMILES
1,761,Cc1ccc(NS(=O)(=O)c2c[nH]c3ncccc23)cc1F
2,940,CC(C)CCNC(=O)CN1C(=O)C2CCCCN2c2ccc(S(=O)(=O)N3CCCC3)cc21 (centres undefined)
3,878,CC(C)OCCCNC(=O)c1c2c(cn(-c3ccccc3)c1=O)C(=O)CC(C)(C)C2
4,1300,Cc1ccc(-c2coc(-c3cccc(NS(=O)(=O)c4ccc(Br)s4)c3)n2)cc1
5,666,COc1ccccc1N1CCN(C(=O)c2cc(NC(=O)C(C)C)cc3nc(C)ccc23)CC1
6,620,Cc1cccc(C(=O)N2C[C@@H](F)C[C@H]2C(=O)N2CCOCC2)c1
7,603,Cn1cnnc1SCCNC(=O)c1ccc(OCC(=O)C2CC2)cc1
8,846,Cc1cccc(N2CCN(CC(O)COc3ccc(Cl)cc3)CC2)c1 (centres undefined)
9,1010,CC(Oc1ccccc1F)C(=O)Nc1nc(-c2ccc(S(=O)(=O)N3CCOCC3)cc2)cs1 (centres undefined)
10,786,CCn1ccc(C(=O)Nc2ccc(N3CCN(c4ccccc4)C3=O)nc2)n1
11,675,Cc1cccnc1NC(=O)C1CCN(S(=O)(=O)c2cc(C(=O)N3CCCCCC3)cs2)CC1
12,604,Cc1nn(CC(=O)NCCCN(C)C)c(=O)c2nc(-c3ccccc3)sc12
13,590,O=C(C1CCN(c2ncnc3c2oc2ccccc23)CC1)N1CCN(C2CCCCC2)CC1
14,706,COc1cc(C(=O)NC2CCN(c3cc(-c4ccc(F)cc4)[nH]n3)C2)cc(OC)c1OC (centres undefined)
15,680,Cc1ccc(-c2nc(CN3CCSCC3)c(C)o2)cc1
16,821,O=C(CSc1ccc(S(=O)(=O)c2ccccc2)nn1)Nc1ccc2c(c1)OCCO2
17,830,CCN(CC)C(=O)c1cc2c(s1)CCC(C(=O)NCc1ccc3c(c1)OCO3)C2 (centres undefined)
18,1010,Cc1cc2cc(CNC(=O)C(=O)c3c(C)[nH]c4ccccc34)ccc2[nH]1
19,964,CCN(CC)S(=O)(=O)c1ccc2c(c1)cc(C(=O)NCCc1c[nH]c3ccc(OC)cc13)n2C
20,777,CC(CCc1ccco1)NC(=O)C1CCc2nc(N3CCCCC3)ncc2C1 (centres undefined)
21,860,COc1cc(C(=O)Nc2nc(-c3ccc4c(c3)NC(=O)CO4)c(C)s2)cc(OC)c1OC
22,782,Cc1noc2nc(C)n(CC(=O)NCC(C)c3ccccc3)c(=O)c12 (centres undefined)
23,949,Clc1cc(-c2nc(-c3cccc(-c4ccn[nH]4)c3)no2)ccn1

row,RP-LC retention time [s],SMILES
1,856,O=S(=O)(Nc1ccccc1F)c1ccc(-c2nnc(C3CCC3)o2)o1
2,1220,Cc1ccc(-c2nnc(Cc3nc(-c4ccc(Br)cc4)no3)o2)cc1F
3,684,CCC(C)N(CCNC(=O)c1cc(C)nn1-c1ccccc1)C1CCCCC1 (centres undefined)
4,596,CCc1c(CN2CCN(c3ccccn3)CC2)csc1C
5,794,COC(=O)c1cc(S(=O)(=O)N2CCCC2C(=O)Nc2ccc3c(c2)OCCO3)cn1C (centres undefined)
6,642,CCc1ccc(C2=C(C)C(N3CCCN(C(=O)Cn4ccnc4)CC3)=NS2(=O)=O)cc1
7,800,COc1ccc(C(=O)N2CCC3(CC2)NC(=O)c2ccc(Cl)cc2N3)c(C)c1
8,978,O=c1c2ccccc2n(Cc2nc(-c3ccccc3)no2)c(=O)n1CC1CCCO1 (centres undefined)
9,590,O=C(C1CCCN(c2ncnc3c2nc2n3CCCCC2)C1)N1CCC(N2CCCCC2)CC1 (centres undefined)
10,768,COc1ccc(OC)c(S(=O)(=O)N2CCCC(C(=O)NC(C)(C)C)C2)c1 (centres undefined)
11,538,CCNc1cc(N2CCC(CCC(=O)NCCC(C)C)CC2)ncn1
12,775,Cc1cccc(NC(=O)Cn2c(=O)n3nc(CCn4nc(C)cc4C)nc3c3ccccc32)c1
13,714,O=C(c1ccc(OCC2CCCN2C(=O)C2CC2)cc1)N1CCCC1 (centres undefined)
14,967,CCOC(=O)N1CCN(c2ccc(C(F)(F)F)cc2[N+](=O)[O-])CC1
15,646,CCn1c(=O)n(CC)c2cc(N3CCCC3)c(NC(=O)NCc3cccc(OC)c3)cc21
16,719,CC(C)(C)c1ccc(NC(=O)CSc2ncn[nH]2)cc1
17,626,CCCCS(=O)(=O)N1C[C@@H](COC)[C@H](C(=O)NC)C1
18,883,O=S(=O)(NCCc1noc(-c2ccccc2)n1)c1ccc2c(c1)OCCO2
19,1160,O=C(CSc1ncnc2c1cnn2-c1ccccc1)Nc1ccc(OC(F)(F)F)cc1
20,1150,CCc1nc(-n2cccc2)sc1C(=O)Nc1cccc(C)c1
